Patent US11702417B2, “Compounds for improving mRNA splicing” (The General Hospital Corporation, priority 2015, dated 2023)
Read-outs that look alike come from different tables or passages of the source.

System: FD (familial dysautomonia) IKBKAP minigene, exon 20 inclusion, in HEK293T cells
Assay: Primary splicing assay (FD IKBKAP minigene, Firefly/Renilla luciferase reporter in HEK293T)
Assay type: cell-based, human
Settings: for EC (maximum kinetin efficacy) / Emax: Homo sapiens, HEK-293T; for EC (maximum kinetin efficacy): HEK293T, read-out: ECk (compound concentration at which the maximum kinetin efficacy (200 μM) is reached); for ECk, Firefly only: Renilla interference/Firefly only (footnote c)
Experimental: As used herein, the expression “ECk” refers to the compound concentration at which the maximum kinetin efficacy (200 μM) is reached.
Splicing analysis was made possible by using an FD (familial dysautomonia) IKBKAP minigene which contained exon 19 through exon 21, including intervening introns, and also the T→C Thymine to cytosine transition located 6 base-pairs from the end of IKBKAP exon 20; See SEQ ID NO:3 for the complete sequence of plasmid pcDNA3.1/V5HisTOPO with Renilla-Familial Dysautonomia minigene-Firefly. Firefly luciferase (SEQ ID NO:14) was utilized as a splicing reporter, located downstream of exon 21, and Renilla luciferase (SEQ ID NO:13) was used as a control, located upstream of exon 19. The sequence of exon 19 is presented as SEQ ID NO:7; the Intron between Exon 19 and Exon 20 is SEQ ID NO:8; exon 20 is SEQ ID NO:9; the intron between […]; exon 21 is SEQ ID NO: 11, and the spliced sequence of exons 19-20-21 is SEQ ID NO:12. HEK293T cells were plated in a 6-well plate 24 hours prior to transfection. Transfection was carried out using a mixture of Opti-MEM (GIBCO ref. 31985), IKBKAP minigene, and Fugene HID (PROMEGA ref. E2311), incubated in DMEM media containing HEK293T cells at 37° C. The ratio of Opti-MEM, minigene, and Fugene was kept at approximately 9:1.5:1, with a total volume of 150 μL of transfection mixture applied per well.
After 4 hours of transfection, the cells were then plated in a 96-well plate coated with poly-L-lysine (SIGMA cat.P4707) for treatment scheduled 24 hours later. […] After 24 hours of treatment, cells were washed in the poly-L-lysine coated 96-well plate using PBS and subsequently harvested using Passive Lysis Buffer (Promega cat.E196). Cell lysate was transferred to a black and white 96-well plate and analyzed for splicing correction using a Glomax luminometer (PROMEGA GloMax® 96 Microplate Luminometer w/Dual Injectors cat.E6521) and Promega Dual Glo Firefly and Stop and Glo Renilla reagents (Cat.E196). The compound's ability to correct splicing and promote exon 20 inclusion was marked by an increase in Firefly signal. Renilla signal, which is independent of exon 20 inclusion, was used to correct for cell number. Using the ratio of Firefly to Renilla signal, a dose response curve was produced, which referenced kinetin and DMSO Firefly/Renilla ratios as positive and negative controls, respectively.

[1] = Firefly/Renilla ratio, 24 hours of treatment
[2] = max efficacy in Primary Assay, Firefly/Renilla ratio, kinetin and DMSO as positive and negative controls, 24 hours of treatment, read-out: Emax (%)
[3] = max efficacy, value marked (RT-PCR), footnote a: Firefly inhibitor, read-out: Emax (%) (RT-PCR)
[4] = max efficacy, Firefly only, footnote c: Renilla interference/Firefly only, read-out: Emax (%) Firefly only

| SMILES | EC (maximum kinetin efficacy) [1] [µM] | Emax [2] [%] | other results |
| --- | --- | --- | --- |
| Clc1nc(NCc2ccncn2)c2nc(C3CC3)[nH]c2n1 [(144)] | 7.7 | 127 |  |
| Clc1nc(NCc2ccncc2)c2nc(C3CC3)[nH]c2n1 [(141)] |  | 103 |  |
| CC(=O)Oc1c[nH]c2nc(Cl)nc(NCc3ccco3)c12 [(252)] |  | 43 |  |
| Fc1c[nH]c2nc(Cl)nc(NCc3ccco3)c12 [(81)] | 3.08 |  |  |
| Clc1nc(NCc2nccs2)c2nc[nH]c2n1 [(131)] | 7 | 190 |  |
| Ic1nc(NCc2ccco2)c2nc[nH]c2n1 [(264)] |  | 44 |  |
| Cc1c[nH]c2nc(Cl)nc(NCc3ccncc3)c12 [(120)] | 2.75 | 166 |  |
| COc1ccc(C(=O)Nc2ncnc3[nH]cnc23)cc1 [(441)] |  | 42.8 |  |
| COCCn1ccc2c(NCc3ccco3)nc(Cl)nc21 [(94)] |  |  | Emax [3]: 180%; ECk (RT-PCR) (determined by RT-PCR, footnote a Firefly inhibitor, footnote b Renilla interference): 10 to 31.6 µM |
| CNc1nc2c(NCc3ccco3)nc(Cl)nc2[nH]1 [(113)] | 5.17 | 132 |  |
| CC(F)(F)COc1nc2c(NCc3nccs3)nc(Cl)nc2[nH]1 [(388)] | 0.68 | 215 |  |
| OCCOc1nc2c(NCc3nccs3)nc(Cl)nc2[nH]1 [(310)] | 1.5 | 191 |  |
| Clc1cc(NCc2nccs2)n2nccc2n1 [(325)] |  | 20 |  |
| N#Cc1c[nH]c2nc(Cl)nc(NCc3ccncn3)c12 [(152)] |  | 35 |  |
| c1c[nH]c(CNc2ncnc3[nH]cnc23)n1 [(6)] |  | 21 |  |
| Clc1nc(NCc2ccncc2Cl)c2cc[nH]c2n1 [(228)] | 15.7 | 152 |  |
| Clc1nc(NCc2ccncc2)c2c(Cl)c[nH]c2n1 [(207)] | 75.8 | 109 |  |
| c1csc(CNc2[nH]cnc3ncnc2-3)c1 [(438)] |  | 44 |  |
| Clc1nc(NCc2nccs2)c2nc(OC[C@@H]3CCOC3)[nH]c2n1 [(473)] | 2.1 | 130 |  |
| O=C(NCCO)c1cc2c(NCc3ccco3)nc(Cl)nc2[nH]1 [(221)] |  | 86 |  |
| c1coc(CNc2nc(C3CC3)nc3[nH]cnc23)c1 [(65)] |  | 32 |  |
| FC(F)(F)c1nc(NCc2ccco2)c2nc[nH]c2n1 [(44)] |  | 19 |  |
| Clc1nc(NCc2ccncc2)c2nc(OC3COC3)[nH]c2n1 [(272)] | 2.6 | 155 |  |
| CC#CCOc1nc2c(NCc3ccco3)nc(Cl)nc2[nH]1 [(486)] | 2.57 | 150 |  |
| CNc1nc2c(NCc3ccncc3)nc(Cl)nc2[nH]1 [(244)] | 7.05 | 150 |  |
| COC(=O)c1nc2c(NCc3ccco3)nc(Cl)nc2[nH]1 [(232)] |  | 59 |  |

| SMILES | EC (maximum kinetin efficacy) [1] [µM] | Emax [2] [%] | other results |
| --- | --- | --- | --- |
| COc1cc(CNc2nc(Cl)nc3[nH]ccc23)ccn1 [(237)] |  | 21 |  |
| c1nc(NCc2cnn[nH]2)c2nc[nH]c2n1 [(406)] |  | 20 |  |
| FC(F)(F)c1ccccc1CNc1ncnc2[nH]cnc12 [(23)] |  | 34 |  |
| CC(=O)N1CCC(n2ccc3c(NCc4ccco4)nc(Cl)nc32)CC1 [(197)] |  | 14 |  |
| Clc1nc(NCc2nccs2)c2nc(OCC3CCCC3)[nH]c2n1 [(332)] | 0.78 | 189 |  |
| Clc1nc(NCc2ccco2)c2ncn(Cc3cccnc3)c2n1 [(76)] |  | 69 |  |
| Clc1nc(NCc2ccco2)c2cc(C3CC3)[nH]c2n1 [(156)] | 15.8 | 73 |  |
| CN(C)Cc1c[nH]c2nc(Cl)nc(NCc3ccco3)c12 [(180)] |  | 28 |  |
| Cc1cn(CCO)c2nc(Cl)nc(NCc3ccco3)c12 [(105)] |  |  | Emax [4]: 134%; ECk, Firefly only: 10.36 µM⁻¹ |
| Clc1nc(NCc2ccnnc2)c2nc[nH]c2n1 [(179)] |  | 49 |  |
| COCc1cc2c(NCc3ccco3)nc(Cl)nc2[nH]1 [(166)] |  | 80 |  |
| Fc1ccccc1Nc1ncnc2[nH]cnc12 [(15)] | 158 |  |  |
| CNc1nc2c(NCc3nccs3)nc(Cl)nc2[nH]1 [(245)] | 15.4 | 122 |  |
| CNCc1c[nH]c2nc(Cl)nc(NCc3ccco3)c12 [(177)] |  | 60 |  |
| Clc1ccccc1CNc1[nH]cnc2ncnc1-2 [(426)] |  | 59 |  |
| C[C@@H](Nc1ncnc2[nH]cnc12)c1ccco1 [(411)] |  | 55 |  |
| c1ccc(-c2c[nH]c3ncnc(NCc4ccco4)c23)cc1 [(83)] |  | 4 |  |
| Clc1nc(NCc2nccs2)c2nc(OCc3ccccc3)[nH]c2n1 [(483)] | 1.26 | 138 |  |
| CCCOc1nc2c(NCc3ccncn3)nc(Cl)nc2[nH]1 [(317)] | 0.16 | 223 |  |
| Cc1cc2c(NCc3ccncn3)nc(Cl)nc2[nH]1 [(136)] | 7.52 | 143 |  |
| O[C@H]1C=C[C@H](n2ccc3c(NCc4ccco4)nc(Cl)nc32)C1 [(132)] |  |  | Emax [3]: 67.7% |
| Cn1cnc2c(NCc3ccco3)ncnc21 [(20)] |  | 22 |  |
| Clc1nc(NCc2ccco2)c2[nH]cnc2n1 [(458)] |  | 73.1 |  |
| Fc1cccc(CNc2ncnc3[nH]cnc23)c1 [(12)] |  |  | Emax (max efficacy in Primary Assay, value flagged footnote a: Firefly inhibitor, read-out: Emax (%)): 54% |
| CCOc1nc2c(NCc3ccncc3)nc(Cl)nc2[nH]1 [(273)] | 0.62 | 254 |  |
| Clc1nc(NCc2ccco2)c2c(CN3CCCC3)c[nH]c2n1 [(173)] |  | 30 |  |

| SMILES | EC (maximum kinetin efficacy) [1] [µM] | Emax [2] [%] | other results |
| --- | --- | --- | --- |
| OCCn1cc(F)c2c(NCc3ccco3)nc(Cl)nc21 [(111)] |  |  | Emax [4]: 191%; ECk, Firefly only: 9.3 µM⁻¹ |
| CNc1nc2c(NCc3ccco3)nc(Cl)nc2n1CCO [(202)] | 9.35 | 137 |  |
| Clc1nc(NCc2cscn2)c2nc(OC3COC3)[nH]c2n1 [(497)] | 5.56 | 120 |  |
| [N-]=[N+]=Nc1nc2c(NCc3ccco3)nc(Cl)nc2[nH]1 [(133)] | 11.8 | 143 |  |
| FC(F)(F)CCn1ccc2c(NCc3ccco3)nc(Cl)nc21 [(160)] |  | 85 |  |
| Fc1nc(NCc2nccs2)c2nc[nH]c2n1 [(367)] |  | 94 |  |
| CC(Nc1nc(Cl)nc2[nH]ccc12)c1nccs1 (centres unmarked) [(364)] |  | 18.2 |  |
| Cc1cn(CCO)c2nc(Cl)nc(NCc3ccncc3)c12 [(121)] | 17.3 | 189 |  |
| N#CCc1nc2c(NCc3ccco3)nc(Cl)nc2[nH]1 [(224)] | 9.49 | 139 |  |
| Clc1nc2c(c(NCc3ccco3)n1)CCC2 [(466)] | 3.66 | 221 |  |
| Cc1c[nH]c2nc(Cl)nc(NCc3nccs3)c12 [(123)] | 4.9 | 92 |  |
| COc1nc(NCc2ccco2)c2nc[nH]c2n1 [(36)] |  | 18 |  |
| CC(C)(C)OCCOc1nc2c(NCc3nccs3)nc(Cl)nc2[nH]1 [(482)] | 11.1 | 99.1 |  |
| Cc1ccoc1CNc1ncnc2[nH]cnc12 [(54)] |  | 13 |  |
| Clc1nc(NCc2ccco2)c2nc(OC3CNC3)[nH]c2n1 [(333)] |  | 51 |  |
| OCCn1cnc2c(NCc3ccco3)nc(Cl)nc21 [(73)] | 17.1 | 133 |  |
| Clc1cc(NCc2ccncc2)n2ncnc2n1 [(283)] |  | 29 |  |
| O=C1CCCN1CCOc1nc2c(NCc3ccco3)nc(Cl)nc2[nH]1 [(396)] |  | 38.7 |  |
| c1coc(CNc2ccnc3[nH]cnc23)c1 [(48)] | 72.8 |  |  |
| CNC(=O)c1c[nH]c2nc(Cl)nc(NCc3ccco3)c12 [(172)] |  | 61 |  |
| Clc1nc(NCc2nccs2)c2nc(OCc3cccnc3)[nH]c2n1 [(506)] | 1.14 | 144 |  |
| Fc1ccccc1CNc1nc(Cl)nc2[nH]ccc12 [(354)] |  | 57.5 |  |
| OCCn1ncc2c(NCc3ccncc3)nc(Cl)nc21 [(218)] | 21 | 154 |  |
| CCCOc1nc2c(N(CCO)Cc3nccs3)nc(Cl)nc2[nH]1 [(393)] | 7.4 | 85.2 |  |
